Assay results as given in the kinase profiling compilation of Christmann-Franck et al. (2016).

What was measured:
Experiment in all cases: radiometric filter-binding kinase assay
[1] = test system: AKT1 (human), P31749 [S473D]; conditions: ATP 5 µM
[2] = molecular target: AKT2 (human) (UniProt P31751); conditions: ATP 50 µM
[3] = molecular target: AURKB (human) (UniProt Q96GD4); conditions: ATP 20 µM
[4] = molecular target: BRSK2 (human) (UniProt Q8IWQ3); conditions: ATP 50 µM
[5] = molecular target: CAMKK2 (human) (UniProt Q96RR4); conditions: ATP 20 µM
[6] = molecular target: CHEK2 (human) (UniProt O96017); conditions: ATP 20 µM
[7] = molecular target: CSK (human) (UniProt P41240); conditions: ATP 20 µM
[8] = molecular target: CaMK1 (human) (UniProt Q14012); conditions: ATP 50 µM
[9] = molecular target: DYRK2 (human) (UniProt Q92630); conditions: ATP 50 µM
[10] = molecular target: DYRK3 (human) (UniProt O43781); conditions: ATP 5 µM
[11] = molecular target: EEF2K (human) (UniProt O00418); conditions: ATP 5 µM
[12] = molecular target: GSK3B (human) (UniProt P49841); conditions: ATP 5 µM
[13] = molecular target: HIPK2 (human) (UniProt Q9H2X6); conditions: ATP 5 µM
[14] = molecular target: HIPK3 (human) (UniProt Q9H422); conditions: ATP 20 µM
[15] = molecular target: IKBKB (human) (UniProt O14920); conditions: ATP 5 µM
[16] = molecular target: MAPK1 (human) (UniProt P28482); conditions: compound 1.0 µM; ATP 50 µM
[17] = molecular target: MAPK10 (human) (UniProt P53779); conditions: ATP 50 µM
[18] = molecular target: MAPK14 (human) (UniProt Q16539); conditions: ATP 50 µM
[19] = molecular target: MAPK15 (human) (UniProt Q8TD08); conditions: ATP 5 µM
[20] = molecular target: MAPK3 (human) (UniProt P27361); conditions: ATP 5 µM
[21] = molecular target: MAPK8 (human) (UniProt P45983); conditions: ATP 20 µM
[22] = molecular target: MAPKAPK2 (human) (UniProt P49137); conditions: ATP 20 µM
[23] = molecular target: NEK2 (human) (UniProt P51955); conditions: ATP 50 µM
[24] = molecular target: PAK6 (human) (UniProt Q9NQU5); conditions: ATP 20 µM
[25] = molecular target: PDPK1 (human) (UniProt O15530)
[26] = molecular target: PIM1 (human) (UniProt P11309); conditions: ATP 20 µM
[27] = molecular target: PIM3 (human) (UniProt Q86V86); conditions: ATP 20 µM
[28] = molecular target: PKN2 (human) (UniProt Q16513); conditions: ATP 5 µM
[29] = molecular target: PLK1 (human) (UniProt P53350); conditions: ATP 5 µM
[30] = test system: PRKAA1 or PRKAA2 (rat); conditions: accession and sequence are those of the human protein
[31] = molecular target: PRKACA or PRKACB or PRKACG (human) (UniProt P22694+P22612+P17612); conditions: ATP 20 µM
[32] = molecular target: PRKCA (human) (UniProt P17252); conditions: ATP 20 µM
[33] = molecular target: RPS6KA1 KD1 KD2 (human) (UniProt Q15418); conditions: ATP 50 µM
[34] = test system: SGK1 (human), O00141 [S422D]; conditions: ATP 20 µM
[35] = test system: SRC (chicken); conditions: ATP 50 µM, accession and sequence are those of the human protein
[36] = molecular target: STK3 (human) (UniProt Q13188); conditions: ATP 20 µM
[37] = molecular target: CSNK2A1 or CSNK2A2 (human) (UniProt P19784+P68400); conditions: compound 0.01 µM; ATP 5 µM
[38] = molecular target: MAP2K1 (human) (UniProt Q02750); conditions: compound 0.01 µM; ATP 5 µM
[39] = molecular target: MAPK12 (human) (UniProt P53778); conditions: compound 0.01 µM; ATP 5 µM

PDPK1 (human), sequence (O15530 whole entry, looked up): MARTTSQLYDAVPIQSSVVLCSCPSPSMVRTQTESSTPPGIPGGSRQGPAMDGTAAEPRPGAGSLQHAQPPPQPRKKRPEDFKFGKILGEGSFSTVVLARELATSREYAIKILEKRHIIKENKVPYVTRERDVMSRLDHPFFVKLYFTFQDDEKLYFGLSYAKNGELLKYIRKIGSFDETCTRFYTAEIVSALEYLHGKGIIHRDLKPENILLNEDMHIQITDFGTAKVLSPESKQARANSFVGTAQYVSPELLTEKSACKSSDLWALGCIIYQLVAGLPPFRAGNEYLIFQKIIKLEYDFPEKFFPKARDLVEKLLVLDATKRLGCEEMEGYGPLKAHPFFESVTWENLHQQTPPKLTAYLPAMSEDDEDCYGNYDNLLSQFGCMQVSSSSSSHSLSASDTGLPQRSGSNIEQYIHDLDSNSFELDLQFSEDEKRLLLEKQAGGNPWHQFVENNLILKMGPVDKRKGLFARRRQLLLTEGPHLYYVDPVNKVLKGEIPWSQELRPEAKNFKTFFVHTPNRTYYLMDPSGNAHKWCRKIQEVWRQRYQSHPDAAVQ
MAPK14 (human), sequence (Q16539 whole entry, looked up): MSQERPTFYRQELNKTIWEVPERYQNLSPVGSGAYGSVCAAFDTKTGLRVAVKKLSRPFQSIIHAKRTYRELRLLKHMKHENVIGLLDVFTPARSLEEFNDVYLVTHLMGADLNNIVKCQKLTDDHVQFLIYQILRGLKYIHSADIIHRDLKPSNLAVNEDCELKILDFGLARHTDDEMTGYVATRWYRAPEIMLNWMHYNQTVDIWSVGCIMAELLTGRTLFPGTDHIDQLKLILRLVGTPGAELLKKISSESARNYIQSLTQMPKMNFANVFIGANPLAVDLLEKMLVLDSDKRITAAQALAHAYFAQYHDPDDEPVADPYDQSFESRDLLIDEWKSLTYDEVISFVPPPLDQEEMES
DYRK2 (human), sequence (Q92630 whole entry, looked up): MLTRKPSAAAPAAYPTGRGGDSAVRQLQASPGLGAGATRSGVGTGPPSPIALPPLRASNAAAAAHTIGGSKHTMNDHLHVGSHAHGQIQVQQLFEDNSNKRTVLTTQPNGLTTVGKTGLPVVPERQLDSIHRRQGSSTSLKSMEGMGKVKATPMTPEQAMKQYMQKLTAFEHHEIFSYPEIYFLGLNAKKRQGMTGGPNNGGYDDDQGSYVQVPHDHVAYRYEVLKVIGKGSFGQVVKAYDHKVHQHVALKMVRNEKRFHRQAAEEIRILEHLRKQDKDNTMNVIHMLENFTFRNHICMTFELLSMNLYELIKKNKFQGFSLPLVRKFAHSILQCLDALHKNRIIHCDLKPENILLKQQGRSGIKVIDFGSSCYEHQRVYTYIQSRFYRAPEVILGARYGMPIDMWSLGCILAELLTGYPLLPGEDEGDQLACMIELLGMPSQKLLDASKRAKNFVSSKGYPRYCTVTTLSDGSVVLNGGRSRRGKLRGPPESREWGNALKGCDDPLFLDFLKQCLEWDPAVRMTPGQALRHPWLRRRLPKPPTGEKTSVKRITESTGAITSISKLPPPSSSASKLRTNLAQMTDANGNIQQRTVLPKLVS
CSK (human), sequence (P41240 whole entry, looked up): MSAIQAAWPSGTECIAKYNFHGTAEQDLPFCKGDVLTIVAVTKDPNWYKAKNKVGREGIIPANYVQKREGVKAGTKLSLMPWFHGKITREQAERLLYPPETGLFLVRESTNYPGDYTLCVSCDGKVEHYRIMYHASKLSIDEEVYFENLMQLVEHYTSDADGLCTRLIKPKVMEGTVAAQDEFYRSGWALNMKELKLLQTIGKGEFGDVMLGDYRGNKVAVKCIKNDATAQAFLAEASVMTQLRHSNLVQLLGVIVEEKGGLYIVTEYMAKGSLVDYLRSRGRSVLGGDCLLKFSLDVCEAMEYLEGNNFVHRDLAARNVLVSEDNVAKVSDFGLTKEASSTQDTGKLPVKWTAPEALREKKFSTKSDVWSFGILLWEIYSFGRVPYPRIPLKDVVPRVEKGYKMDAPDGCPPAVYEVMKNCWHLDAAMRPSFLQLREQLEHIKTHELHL
SGK1 (human), O00141 [S422D], sequence (O00141 whole entry S422D, looked up): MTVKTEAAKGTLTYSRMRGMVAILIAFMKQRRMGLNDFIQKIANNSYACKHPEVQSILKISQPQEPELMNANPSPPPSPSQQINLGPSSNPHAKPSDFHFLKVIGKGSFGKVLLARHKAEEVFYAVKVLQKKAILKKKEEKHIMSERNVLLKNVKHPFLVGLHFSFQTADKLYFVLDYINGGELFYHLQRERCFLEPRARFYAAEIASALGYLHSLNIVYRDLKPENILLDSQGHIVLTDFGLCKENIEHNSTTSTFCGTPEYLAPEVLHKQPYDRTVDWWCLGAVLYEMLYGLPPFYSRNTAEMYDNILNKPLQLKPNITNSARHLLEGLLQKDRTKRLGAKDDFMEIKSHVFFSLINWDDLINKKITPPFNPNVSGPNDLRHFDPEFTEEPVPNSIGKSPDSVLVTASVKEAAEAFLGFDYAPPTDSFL
PIM1 (human), sequence (P11309 whole entry, looked up): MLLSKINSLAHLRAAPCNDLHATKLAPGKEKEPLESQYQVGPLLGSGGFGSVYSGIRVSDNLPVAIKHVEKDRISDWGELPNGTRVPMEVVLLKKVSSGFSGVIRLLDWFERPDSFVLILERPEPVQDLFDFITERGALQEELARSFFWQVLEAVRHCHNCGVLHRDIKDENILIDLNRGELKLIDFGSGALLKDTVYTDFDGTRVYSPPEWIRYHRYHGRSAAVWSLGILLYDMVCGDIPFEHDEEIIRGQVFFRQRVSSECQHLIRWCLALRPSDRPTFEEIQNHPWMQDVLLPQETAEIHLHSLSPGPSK
AKT1 (human), P31749 [S473D], sequence (P31749 whole entry S473D, looked up): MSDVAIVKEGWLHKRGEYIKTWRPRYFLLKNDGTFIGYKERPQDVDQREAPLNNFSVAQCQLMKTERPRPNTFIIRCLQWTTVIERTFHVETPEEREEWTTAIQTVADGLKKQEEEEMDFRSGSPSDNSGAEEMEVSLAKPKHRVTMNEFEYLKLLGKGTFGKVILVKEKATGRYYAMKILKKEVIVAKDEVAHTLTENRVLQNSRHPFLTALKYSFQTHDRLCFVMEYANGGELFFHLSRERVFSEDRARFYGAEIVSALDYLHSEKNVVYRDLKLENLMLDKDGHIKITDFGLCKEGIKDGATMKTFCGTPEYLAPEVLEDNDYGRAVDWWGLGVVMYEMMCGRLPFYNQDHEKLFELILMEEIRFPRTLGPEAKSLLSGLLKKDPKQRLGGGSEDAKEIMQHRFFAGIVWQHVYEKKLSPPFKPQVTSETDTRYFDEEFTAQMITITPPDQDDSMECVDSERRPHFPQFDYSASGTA
PKN2 (human), sequence (Q16513 whole entry, looked up): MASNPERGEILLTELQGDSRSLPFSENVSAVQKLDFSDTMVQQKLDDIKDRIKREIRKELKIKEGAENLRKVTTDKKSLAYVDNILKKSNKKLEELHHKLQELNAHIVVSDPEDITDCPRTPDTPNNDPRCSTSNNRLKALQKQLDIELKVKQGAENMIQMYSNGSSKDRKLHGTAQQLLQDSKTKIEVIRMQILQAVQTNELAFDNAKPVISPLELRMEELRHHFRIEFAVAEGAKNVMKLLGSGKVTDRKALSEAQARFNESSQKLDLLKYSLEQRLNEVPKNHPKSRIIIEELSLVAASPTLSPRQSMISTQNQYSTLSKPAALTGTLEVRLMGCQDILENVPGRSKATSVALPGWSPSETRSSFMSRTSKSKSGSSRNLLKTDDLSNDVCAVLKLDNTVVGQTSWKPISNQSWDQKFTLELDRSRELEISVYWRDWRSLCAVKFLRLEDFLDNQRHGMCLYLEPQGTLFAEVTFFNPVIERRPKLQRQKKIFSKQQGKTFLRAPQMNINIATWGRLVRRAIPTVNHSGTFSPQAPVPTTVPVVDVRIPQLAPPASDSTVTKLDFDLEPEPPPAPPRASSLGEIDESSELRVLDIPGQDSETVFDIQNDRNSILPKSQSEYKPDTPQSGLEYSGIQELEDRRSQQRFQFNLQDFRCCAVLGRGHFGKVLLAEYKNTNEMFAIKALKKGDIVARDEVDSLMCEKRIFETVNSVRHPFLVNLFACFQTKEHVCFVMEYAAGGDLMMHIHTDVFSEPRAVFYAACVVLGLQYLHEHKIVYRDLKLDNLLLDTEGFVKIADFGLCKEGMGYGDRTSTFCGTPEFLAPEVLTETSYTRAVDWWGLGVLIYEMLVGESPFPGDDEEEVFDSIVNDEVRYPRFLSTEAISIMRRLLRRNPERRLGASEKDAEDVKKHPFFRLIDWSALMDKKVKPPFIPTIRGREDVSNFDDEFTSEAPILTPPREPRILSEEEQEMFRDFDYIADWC
RPS6KA1 KD1 KD2 (human), sequence (Q15418 whole entry, looked up): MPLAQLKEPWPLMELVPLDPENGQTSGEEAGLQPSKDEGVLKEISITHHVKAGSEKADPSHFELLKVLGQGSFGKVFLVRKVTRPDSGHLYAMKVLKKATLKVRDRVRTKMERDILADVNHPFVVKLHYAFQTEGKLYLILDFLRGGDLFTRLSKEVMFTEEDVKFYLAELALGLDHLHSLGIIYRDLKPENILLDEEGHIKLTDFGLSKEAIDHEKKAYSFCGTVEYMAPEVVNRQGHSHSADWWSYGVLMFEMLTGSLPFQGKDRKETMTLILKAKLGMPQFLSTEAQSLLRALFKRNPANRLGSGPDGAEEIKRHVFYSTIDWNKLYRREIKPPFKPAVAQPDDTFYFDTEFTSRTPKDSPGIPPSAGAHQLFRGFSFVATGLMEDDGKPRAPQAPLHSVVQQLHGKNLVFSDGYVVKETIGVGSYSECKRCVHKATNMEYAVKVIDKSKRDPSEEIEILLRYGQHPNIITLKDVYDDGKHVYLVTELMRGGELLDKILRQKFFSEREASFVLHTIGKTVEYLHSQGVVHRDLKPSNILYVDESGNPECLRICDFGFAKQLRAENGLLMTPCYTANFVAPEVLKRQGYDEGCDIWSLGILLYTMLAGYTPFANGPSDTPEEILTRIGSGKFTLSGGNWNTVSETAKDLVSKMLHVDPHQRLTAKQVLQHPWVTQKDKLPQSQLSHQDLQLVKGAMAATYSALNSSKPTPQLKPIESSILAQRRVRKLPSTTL

## O=S(=O)(NCCNC/C=C/c1ccc(Br)cc1)c1cccc2cnccc12
[1]; compound 1.0 µM
  residual activity: 14%
[2]; compound 1.0 µM
  residual activity: 21%
[3]; compound 1.0 µM
  residual activity: 70%
[4]; compound 1.0 µM
  residual activity: 82%
[5]; compound 1.0 µM
  residual activity: 102%
[6]; compound 1.0 µM
  residual activity: 69%
[7]; compound 1.0 µM
  residual activity: 89%
[8]; compound 1.0 µM
  residual activity: 101%
[9]; compound 1.0 µM
  residual activity: 105%
[10]; compound 1.0 µM
  residual activity: 65%
[11]; compound 1.0 µM
  residual activity: 102%
[12]; compound 1.0 µM
  residual activity: 88%
[13]; compound 1.0 µM
  residual activity: 101%
[14]; compound 1.0 µM
  residual activity: 106%
[15]; compound 1.0 µM
  residual activity: 98%
[16]
  residual activity: 88%
[17]; compound 1.0 µM
  residual activity: 93%
[18]; compound 1.0 µM
  residual activity: 99%
[19]; compound 1.0 µM
  residual activity: 93%
[20]; compound 1.0 µM
  residual activity: 90%
[21]; compound 1.0 µM
  residual activity: 88%
[22]; compound 1.0 µM
  residual activity: 111%
[23]; compound 1.0 µM
  residual activity: 102%
[24]; compound 1.0 µM
  residual activity: 76%
[25]; compound 1.0 µM, ATP 20 µM
  residual activity: 91%
[25]; compound 1.0 µM, ATP 50 µM
  residual activity: 56%
[26]; compound 1.0 µM
  residual activity: 90%
[27]; compound 1.0 µM
  residual activity: 91%
[28]; compound 1.0 µM
  residual activity: 7%
[29]; compound 1.0 µM
  residual activity: 95%
[30]; compound 1.0 µM
  residual activity: 73%
[31]; compound 1.0 µM
  residual activity: 15%
[32]; compound 1.0 µM
  residual activity: 80%
[33]; compound 1.0 µM
  residual activity: 36%
[34]; compound 1.0 µM
  residual activity: 62%
[35]; compound 1.0 µM
  residual activity: 100%
[36]; compound 1.0 µM
  residual activity: 81%

## CN[C@@H]1C[C@@H]2O[C@@](C)([C@@H]1OC)n1c3ccccc3c3c4c(c5c6ccccc6n2c5c31)C(=O)N[C@@H]4O
[1]; compound 0.01 µM
  residual activity: 79%
[2]; compound 0.01 µM
  residual activity: 77%
[3]; compound 0.01 µM
  residual activity: 59%
[4]; compound 0.01 µM
  residual activity: 27%
[5]; compound 0.01 µM
  residual activity: 21%
[6]; compound 0.01 µM
  residual activity: 96%
[7]; compound 0.01 µM
  residual activity: 80%
[37]
  residual activity: 92%
[8]; compound 0.01 µM
  residual activity: 86%
[9]; compound 0.01 µM
  residual activity: 92%
[10]; compound 0.01 µM
  residual activity: 84%
[11]; compound 0.01 µM
  residual activity: 105%
[12]; compound 0.01 µM
  residual activity: 77%
[13]; compound 0.01 µM
  residual activity: 109%
[14]; compound 0.01 µM
  residual activity: 116%
[15]; compound 0.01 µM
  residual activity: 86%
[38]
  residual activity: 75%
[17]; compound 0.01 µM
  residual activity: 107%
[39]
  residual activity: 104%
[18]; compound 0.01 µM
  residual activity: 105%
[19]; compound 0.01 µM
  residual activity: 92%
[20]; compound 0.01 µM
  residual activity: 112%
[21]; compound 0.01 µM
  residual activity: 79%
[22]; compound 0.01 µM
  residual activity: 75%
[23]; compound 0.01 µM
  residual activity: 85%
[24]; compound 0.01 µM
  residual activity: 35%
[25]; compound 0.01 µM, ATP 20 µM
  residual activity: 2%
[25]; compound 0.01 µM, ATP 50 µM
  residual activity: 83%
[26]; compound 0.01 µM
  residual activity: 52%
[27]; compound 0.01 µM
  residual activity: 8%
[28]; compound 0.01 µM
  residual activity: 10%
[29]; compound 0.01 µM
  residual activity: 76%
[30]; compound 0.01 µM
  residual activity: 9%
[31]; compound 0.01 µM
  residual activity: 63%
[32]; compound 0.01 µM
  residual activity: 6%
[33]; compound 0.01 µM
  residual activity: 25%
[34]; compound 0.01 µM
  residual activity: 83%
[35]; compound 0.01 µM
  residual activity: 76%
[36]; compound 0.01 µM
  residual activity: 2%
